From ChEMBL document CHEMBL1201862, “PubChem BioAssay data set” (2004)
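These data come from cells grown in 96-well plates and exposed to compound for 48 hours at five concentrations. GI50: concentration for 50% inhibition of growth.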 The source made the active and inactive calls. Rule as the data show it: active = GI50 up to about 1.1 µM and inactive = higher.

Columns and labels:
Assay in all cases: NCI-60 cell line screen, 48 h
786-0 = tested on: 786-0
A498 = tested on: A498
A549 = tested on: A549
ACHN = tested on: ACHN
BT-549 = tested on: BT-549
CAKI-1 = tested on: CAKI-1
CCRF-CEM = tested on: CCRF-CEM
COLO 205 = tested on: COLO 205
DU-145 = tested on: DU-145
EKVX = tested on: EKVX
HCC 2998 = tested on: HCC 2998
HCT-116 = tested on: HCT-116
HCT-15 = tested on: HCT-15
HL-60 = tested on: HL-60
HOP-62 = tested on: HOP-62
HOP-92 = tested on: HOP-92
HT-29 = tested on: HT-29
Hs-578T = tested on: Hs-578T
IGROV-1 = tested on: IGROV-1
K562 = tested on: K562
KM12 = tested on: KM12
LOX IMVI = tested on: LOX IMVI
M14 = tested on: M14
MCF7 = tested on: MCF7
MDA-MB-231 = tested on: MDA-MB-231
MDA-MB-435 = tested on: MDA-MB-435
MDA-N = tested on: MDA-N
MOLT-4 = tested on: MOLT-4
Malme-3M = tested on: Malme-3M
NCI-H226 = tested on: NCI-H226
NCI-H23 = tested on: NCI-H23
NCI-H460 = tested on: NCI-H460
NCI-H522 = tested on: NCI-H522
NCI/ADR-RES = tested on: NCI/ADR-RES
OVCAR-3 = tested on: OVCAR-3
OVCAR-4 = tested on: OVCAR-4
OVCAR-5 = tested on: OVCAR-5
OVCAR-8 = tested on: OVCAR-8
PC-3 = tested on: PC-3
RPMI-8226 = tested on: RPMI-8226
RXF 393 = tested on: RXF 393
SF-268 = tested on: SF-268
SF-295 = tested on: SF-295
SF-539 = tested on: SF-539
SK-MEL-28 = tested on: SK-MEL-28
SK-MEL-2 = tested on: SK-MEL-2
SK-MEL-5 = tested on: SK-MEL-5
SK-OV-3 = tested on: SK-OV-3
SN12C = tested on: SN12C
SNB-19 = tested on: SNB-19
SNB-75 = tested on: SNB-75
SR = tested on: SR
SW-620 = tested on: SW-620
T47D = tested on: T47D
TK-10 = tested on: TK-10
U-251 = tested on: U-251
UACC-257 = tested on: UACC-257
UACC-62 = tested on: UACC-62
UO-31 = tested on: UO-31

## CC(=O)NCCC1CN(C(=O)/C=C\I)c2ccccc21 (stereo unspecified)
786-0
  GI50: 10.6 µM (inactive)
A498
  GI50: 18.4 µM (inactive)
A549
  GI50: 13.8 µM (inactive)
ACHN
  GI50: 14.5 µM (inactive)
BT-549
  GI50: 21.6 µM (inactive)
CAKI-1
  GI50: 1.73 µM (inactive)
CCRF-CEM
  GI50: 3.03 µM (inactive)
COLO 205
  GI50: 11.7 µM (inactive)
DU-145
  GI50: 13.9 µM (inactive)
EKVX
  GI50: 17.3 µM (inactive)
HCC 2998
  GI50: 15.2 µM (inactive)
HCT-116
  GI50: 14.6 µM (inactive)
HCT-15
  GI50: 7.71 µM
HL-60
  GI50: 2.7 µM (inactive)
HOP-62
  GI50: 11.2 µM (inactive)
HOP-92
  GI50: 21.7 µM (inactive)
HT-29
  GI50: 11.7 µM (inactive)
Hs-578T
  GI50: 27.2 µM (inactive)
IGROV-1
  GI50: 15.1 µM (inactive)
K562
  GI50: 3.76 µM (inactive)
KM12
  GI50: 5.7 µM (inactive)
LOX IMVI
  GI50: 3.08 µM (inactive)
M14
  GI50: 11.7 µM (inactive)
MCF7
  GI50: 2.56 µM (inactive)
MDA-MB-231
  GI50: 4.13 µM (inactive)
MDA-MB-435
  GI50: 14.2 µM (inactive)
MDA-N
  GI50: 12.6 µM (inactive)
MOLT-4
  GI50: 5.53 µM (inactive)
Malme-3M
  GI50: 15.2 µM (inactive)
NCI-H226
  GI50: 10.7 µM (inactive)
NCI-H23
  GI50: 16.4 µM (inactive)
NCI-H460
  GI50: 9.75 µM (inactive)
NCI-H522
  GI50: 1.78 µM (inactive)
NCI/ADR-RES
  GI50: 25.5 µM (inactive)
OVCAR-3
  GI50: 15 µM (inactive)
OVCAR-4
  GI50: 18.9 µM (inactive)
OVCAR-5
  GI50: 16.6 µM (inactive)
OVCAR-8
  GI50: 16.2 µM (inactive)
PC-3
  GI50: 11.7 µM (inactive)
RPMI-8226
  GI50: 2.08 µM (inactive)
RXF 393
  GI50: 7.29 µM (inactive)
SF-268
  GI50: 15.5 µM (inactive)
SF-295
  GI50: 15.3 µM (inactive)
SF-539
  GI50: 5.32 µM (inactive)
SK-MEL-28
  GI50: 16 µM (inactive)
SK-MEL-2
  GI50: 16 µM (inactive)
SK-MEL-5
  GI50: 3.48 µM (inactive)
SK-OV-3
  GI50: 20 µM (inactive)
SN12C
  GI50: 4.97 µM (inactive)
SNB-19
  GI50: 20.4 µM (inactive)
SNB-75
  GI50: 17.8 µM (inactive)
SR
  GI50: > 33.7 µM (inactive)
SW-620
  GI50: 12.7 µM (inactive)
T47D
  GI50: 18.2 µM (inactive)
TK-10
  GI50: 6.17 µM (inactive)
U-251
  GI50: 12.9 µM (inactive)
UACC-257
  GI50: 13.8 µM (inactive)
UACC-62
  GI50: 13 µM (inactive)
UO-31
  GI50: 7.69 µM (inactive)

## C(=N\N=C1NCCN1)/c1ccc2ccccc2c1
786-0
  GI50: 12.8 µM (inactive)
A498
  GI50: 14 µM (inactive)
A549
  GI50: 14.4 µM (inactive)
ACHN
  GI50: 16.5 µM (inactive)
BT-549
  GI50: 5.53 µM (inactive)
CAKI-1
  GI50: 9.02 µM (inactive)
CCRF-CEM
  GI50: 8.59 µM (inactive)
COLO 205
  GI50: 6.84 µM (inactive)
DU-145
  GI50: 31.2 µM (inactive)
EKVX
  GI50: 12.6 µM (inactive)
HCC 2998
  GI50: 12.7 µM (inactive)
HCT-116
  GI50: 15.4 µM (inactive)
HCT-15
  GI50: 18.2 µM
HL-60
  GI50: 8.67 µM (inactive)
HOP-62
  GI50: 16.1 µM (inactive)
HOP-92
  GI50: 0.174 µM (active)
HT-29
  GI50: 14.5 µM (inactive)
Hs-578T
  GI50: 19.5 µM (inactive)
IGROV-1
  GI50: 9.95 µM (inactive)
K562
  GI50: 11.6 µM (inactive)
KM12
  GI50: 14.9 µM (inactive)
LOX IMVI
  GI50: 12.7 µM (inactive)
MCF7
  GI50: 15.3 µM (inactive)
MDA-MB-231
  GI50: 16.4 µM (inactive)
MDA-MB-435
  GI50: 15.6 µM (inactive)
MDA-N
  GI50: 14.1 µM (inactive)
MOLT-4
  GI50: 10.2 µM (inactive)
Malme-3M
  GI50: 14.2 µM (inactive)
NCI-H226
  GI50: 21 µM (inactive)
NCI-H23
  GI50: 19.6 µM (inactive)
NCI-H460
  GI50: 14.4 µM (inactive)
NCI-H522
  GI50: 13.1 µM (inactive)
NCI/ADR-RES
  GI50: 11.8 µM (inactive)
OVCAR-3
  GI50: 16.1 µM (inactive)
OVCAR-4
  GI50: 18.1 µM (inactive)
OVCAR-5
  GI50: 18.7 µM (inactive)
OVCAR-8
  GI50: 16.4 µM (inactive)
PC-3
  GI50: 14.3 µM (inactive)
RPMI-8226
  GI50: 12 µM (inactive)
RXF 393
  GI50: 17.7 µM (inactive)
SF-268
  GI50: 17.9 µM (inactive)
SF-295
  GI50: 14.9 µM (inactive)
SF-539
  GI50: 19 µM (inactive)
SK-MEL-28
  GI50: 14.3 µM (inactive)
SK-MEL-2
  GI50: 19.5 µM (inactive)
SK-MEL-5
  GI50: 13.2 µM (inactive)
SK-OV-3
  GI50: 10.8 µM (inactive)
SN12C
  GI50: 16.9 µM (inactive)
SNB-75
  GI50: 29.5 µM (inactive)
SR
  GI50: 12.9 µM (inactive)
SW-620
  GI50: 16.3 µM (inactive)
T47D
  GI50: 23.1 µM (inactive)
TK-10
  GI50: 12.4 µM (inactive)
U-251
  GI50: 13.9 µM (inactive)
UACC-257
  GI50: 13.2 µM (inactive)
UACC-62
  GI50: 14.4 µM (inactive)
UO-31
  GI50: 3.67 µM (inactive)
